# Assay results reported in publication PMC6895180 (Nature Communications, 2019).
# Values joined by “and” are separate entries in the source; they are usually repeats but may differ in a detail not shown here. Equal entries are not always repeated.
# How the values were obtained:
# [1] = Cytotoxicity on MRC-5 fibroblasts (resazurin); type: cell-based, human; conditions: human, MRC-5SV2 human embryonic lung fibroblasts, cytotoxicity in human MRC-5 fibroblasts; mean and SEM; read-out: MRC-5 EC50
# Summary of the method: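 MRC-5SV2 cells (3 × 10^4 cells mL^−1) in MEM with 5% foetal calf serum exposed to compounds for 3 days at 37 °C, 5% CO2. Viability read by resazurin fluorescence (10 µg mL^−1 final, 4 h; λex 550/λem 590 nm) against untreated and medium controls; EC50 derived.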
# [2] = test system: T. brucei BSF s427 wildtype cells; test: Growth assays of T. brucei (trypanocidal/trypanostatic effect); type: cell-based, Trypanosoma brucei
# Summary of the method: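 Cells were seeded at 1×10^5 cells/mL in HMI-9 with 10% FBS and 2 μM 2'-deoxycoformycin, then counted manually at intervals up to 48 h. For wash-out, cultures at 10^5 cells/mL (37 °C/5% CO2) were split at 8 h and 48 h and resuspended with or without compound, with counts every 24 h (detection limit 10^4 cells/mL).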
# P2 transporter (TbAT1) = P2 transporter (TbAT1) (Trypanosoma brucei brucei, UniProt Q9Y0I0); test: cell-based; conditions: for Ki: P2 transporter Ki
# Sequence of P2 transporter (TbAT1) (Q9Y0I0 entry or part of it): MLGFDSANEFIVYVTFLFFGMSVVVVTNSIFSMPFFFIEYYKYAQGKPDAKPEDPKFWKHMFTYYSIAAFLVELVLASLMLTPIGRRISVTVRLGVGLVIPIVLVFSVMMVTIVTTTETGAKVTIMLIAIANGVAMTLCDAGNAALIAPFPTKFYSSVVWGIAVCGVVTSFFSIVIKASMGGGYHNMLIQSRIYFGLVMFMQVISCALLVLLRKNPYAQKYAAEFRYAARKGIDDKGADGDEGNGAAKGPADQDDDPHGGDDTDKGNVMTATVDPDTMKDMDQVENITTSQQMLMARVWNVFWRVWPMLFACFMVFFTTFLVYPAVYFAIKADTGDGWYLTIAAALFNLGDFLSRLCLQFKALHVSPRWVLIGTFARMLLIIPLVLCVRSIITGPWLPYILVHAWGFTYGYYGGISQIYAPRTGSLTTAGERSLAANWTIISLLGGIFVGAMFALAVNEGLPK
# Description: Non-specific association of radiolabel with the cell pellet was determined using an identical incubation in the presence of saturating (1 mM) unlabelled adenosine.
smiles,measurement,setting,value
"Nc1ncnc2c1c(Br)cn2[C@@H]1O[C@H](CO)C[C@H]1O [Compound 10, 3’-deoxy-7-Br-tubercidin]",EC50 at 3 day,[1],15 ± 3 µM
same,AVG of cells/mL,"[2]; 2xEC50, 2 h, experiment 1",128750 cells/mL
same,Cells/mL,"[2]; 2xEC50, 2 h, experiment 1",137500 Cells/mL and 120000 Cells/mL
same,Counts,"[2]; 2xEC50, 2 h, experiment 1",55 and 48
same,AVG of cells/mL,"[2]; 2xEC50, 2 h, experiment 2",145000 cells/mL
same,Cells/mL,"[2]; 2xEC50, 2 h, experiment 2",147500 Cells/mL and 142500 Cells/mL
same,Counts,"[2]; 2xEC50, 2 h, experiment 2",59 and 57
same,AVG of cells/mL,"[2]; 2xEC50, 4 h, experiment 1",143750 cells/mL
same,Cells/mL,"[2]; 2xEC50, 4 h, experiment 1",162500 Cells/mL and 125000 Cells/mL
same,Counts,"[2]; 2xEC50, 4 h, experiment 1",50 and 65
same,AVG of cells/mL,"[2]; 2xEC50, 4 h, experiment 2",148750 cells/mL
same,Cells/mL,"[2]; 2xEC50, 4 h, experiment 2",160000 Cells/mL and 137500 Cells/mL
same,Counts,"[2]; 2xEC50, 4 h, experiment 2",55 and 64
same,AVG of cells/mL,"[2]; 2xEC50, 6 h, experiment 1",172500 cells/mL
same,Cells/mL,"[2]; 2xEC50, 6 h, experiment 1",177500 Cells/mL and 167500 Cells/mL
same,Counts,"[2]; 2xEC50, 6 h, experiment 1",71 and 67
same,AVG of cells/mL,"[2]; 2xEC50, 6 h, experiment 2",203750 cells/mL
same,Cells/mL,"[2]; 2xEC50, 6 h, experiment 2",192500 Cells/mL and 215000 Cells/mL
same,Counts,"[2]; 2xEC50, 6 h, experiment 2",77 and 86
same,AVG of cells/mL,"[2]; 2xEC50, 8 h, experiment 1",183750 cells/mL
same,Cells/mL,"[2]; 2xEC50, 8 h, experiment 1",177500 Cells/mL and 190000 Cells/mL
same,Counts,"[2]; 2xEC50, 8 h, experiment 1",71 and 76
same,AVG of cells/mL,"[2]; 2xEC50, 8 h, experiment 2",206250 cells/mL
same,Cells/mL,"[2]; 2xEC50, 8 h, experiment 2",215000 Cells/mL and 197500 Cells/mL
same,Counts,"[2]; 2xEC50, 8 h, experiment 2",86 and 79
same,AVG of cells/mL,"[2]; 2xEC50, 12 h, experiment 1",163750 cells/mL
same,Cells/mL,"[2]; 2xEC50, 12 h, experiment 1",195000 Cells/mL and 132500 Cells/mL
same,Counts,"[2]; 2xEC50, 12 h, experiment 1",78 and 53
same,AVG of cells/mL,"[2]; 2xEC50, 12 h, experiment 2",143750 cells/mL
same,Cells/mL,"[2]; 2xEC50, 12 h, experiment 2",160000 Cells/mL and 127500 Cells/mL
same,Counts,"[2]; 2xEC50, 12 h, experiment 2",64 and 51
same,AVG of cells/mL,"[2]; 2xEC50, 24 h, experiment 1",103750 cells/mL
same,Cells/mL,"[2]; 2xEC50, 24 h, experiment 1",125000 Cells/mL and 82500 Cells/mL
same,Counts,"[2]; 2xEC50, 24 h, experiment 1",50 and 33
same,AVG of cells/mL,"[2]; 2xEC50, 24 h, experiment 2",15000 cells/mL
same,Cells/mL,"[2]; 2xEC50, 24 h, experiment 2",15000 Cells/mL
same,Counts,"[2]; 2xEC50, 24 h, experiment 2",6
same,AVG of cells/mL,"[2]; 2xEC50, 36 h, experiment 1",103750 cells/mL
same,Cells/mL,"[2]; 2xEC50, 36 h, experiment 1",107500 Cells/mL and 100000 Cells/mL
same,Counts,"[2]; 2xEC50, 36 h, experiment 1",43 and 40
same,AVG of cells/mL,"[2]; 2xEC50, 36 h, experiment 2",7500 cells/mL
same,Cells/mL,"[2]; 2xEC50, 48 h, experiment 1",0 Cells/mL
same,Counts,"[2]; 2xEC50, 48 h, experiment 1",0
same,AVG of cells/mL,"[2]; 2xEC50, 48 h, experiment 2",0 cells/mL
same,Cells/mL,"[2]; 2xEC50, 48 h, experiment 2",0 Cells/mL
same,Counts,"[2]; 2xEC50, 48 h, experiment 2",0
same,effect on T. brucei bloodstream forms in culture (cidal/static),[2]; 2× and 5× EC50,trypanocidal
same,AVG of cells/mL,"[2]; 5xEC50, 2 h, experiment 1",138750 cells/mL
same,Cells/mL,"[2]; 5xEC50, 2 h, experiment 1",132500 Cells/mL and 145000 Cells/mL
same,Counts,"[2]; 5xEC50, 2 h, experiment 1",53 and 58
same,AVG of cells/mL,"[2]; 5xEC50, 2 h, experiment 2",140000 cells/mL
same,Cells/mL,"[2]; 5xEC50, 2 h, experiment 2",137500 Cells/mL and 142500 Cells/mL
same,Counts,"[2]; 5xEC50, 2 h, experiment 2",55 and 57
same,AVG of cells/mL,"[2]; 5xEC50, 4 h, experiment 1",152500 cells/mL
same,Cells/mL,"[2]; 5xEC50, 4 h, experiment 1",150000 Cells/mL and 155000 Cells/mL
same,Counts,"[2]; 5xEC50, 4 h, experiment 1",62 and 60
same,AVG of cells/mL,"[2]; 5xEC50, 4 h, experiment 2",153750 cells/mL
same,Cells/mL,"[2]; 5xEC50, 4 h, experiment 2",160000 Cells/mL and 147500 Cells/mL
same,Counts,"[2]; 5xEC50, 4 h, experiment 2",59 and 64
same,AVG of cells/mL,"[2]; 5xEC50, 6 h, experiment 1",171250 cells/mL
same,Cells/mL,"[2]; 5xEC50, 6 h, experiment 1",167500 Cells/mL and 175000 Cells/mL
same,Counts,"[2]; 5xEC50, 6 h, experiment 1",67 and 70
same,AVG of cells/mL,"[2]; 5xEC50, 6 h, experiment 2",140000 cells/mL
same,Cells/mL,"[2]; 5xEC50, 6 h, experiment 2",155000 Cells/mL and 125000 Cells/mL
same,Counts,"[2]; 5xEC50, 6 h, experiment 2",62 and 50
same,AVG of cells/mL,"[2]; 5xEC50, 8 h, experiment 1",131250 cells/mL
same,Cells/mL,"[2]; 5xEC50, 8 h, experiment 1",130000 Cells/mL and 132500 Cells/mL
same,Counts,"[2]; 5xEC50, 8 h, experiment 1",52 and 53
same,AVG of cells/mL,"[2]; 5xEC50, 8 h, experiment 2",146250 cells/mL
same,Cells/mL,"[2]; 5xEC50, 8 h, experiment 2",142500 Cells/mL and 150000 Cells/mL
same,Counts,"[2]; 5xEC50, 8 h, experiment 2",57 and 60
same,AVG of cells/mL,"[2]; 5xEC50, 12 h, experiment 1",98750 cells/mL
same,Cells/mL,"[2]; 5xEC50, 12 h, experiment 1",107500 Cells/mL and 90000 Cells/mL
same,Counts,"[2]; 5xEC50, 12 h, experiment 1",43 and 36
same,AVG of cells/mL,"[2]; 5xEC50, 12 h, experiment 2",95000 cells/mL
same,Cells/mL,"[2]; 5xEC50, 12 h, experiment 2",92500 Cells/mL and 97500 Cells/mL
same,Counts,"[2]; 5xEC50, 12 h, experiment 2",37 and 39
same,AVG of cells/mL,"[2]; 5xEC50, 24 h, experiment 1",28750 cells/mL
same,Cells/mL,"[2]; 5xEC50, 24 h, experiment 1",27500 Cells/mL and 30000 Cells/mL
same,Counts,"[2]; 5xEC50, 24 h, experiment 1",11 and 12
same,AVG of cells/mL,"[2]; 5xEC50, 24 h, experiment 2",7500 cells/mL
same,Cells/mL,"[2]; 5xEC50, 24 h, experiment 2",7500 Cells/mL
same,Counts,"[2]; 5xEC50, 24 h, experiment 2",3
same,AVG of cells/mL,"[2]; 5xEC50, 36 h, experiment 1",18750 cells/mL
same,Cells/mL,"[2]; 5xEC50, 36 h, experiment 1",12500 Cells/mL and 25000 Cells/mL
same,Counts,"[2]; 5xEC50, 36 h, experiment 1",5 and 10
same,AVG of cells/mL,"[2]; 5xEC50, 36 h, experiment 2",1250 cells/mL
same,Cells/mL,"[2]; 5xEC50, 48 h, experiment 1",0 Cells/mL
same,Counts,"[2]; 5xEC50, 48 h, experiment 1",0
same,AVG of cells/mL,"[2]; 5xEC50, 48 h, experiment 2",0 cells/mL
same,Cells/mL,"[2]; 5xEC50, 48 h, experiment 2",0 Cells/mL
same,Counts,"[2]; 5xEC50, 48 h, experiment 2",0
same,P2 transporter ΔG^0,P2 transporter (TbAT1); Gibbs free energy from −RT ln(Ki),-8.58 kcal/mol
same,IC50,"P2 transporter (TbAT1); P2 transporter IC50, single experiments, [L] 0.033 or 0.1 per experiment",0.62 µM and 0.79 µM and 0.25 µM
same,Ki,"P2 transporter (TbAT1); AVG, source data",0.5 µM
same,Ki,"P2 transporter (TbAT1); inhibition of [3H]adenosine uptake, mean ± SEM, n = 3",0.502 ± 0.14 µM
same,Ki,"P2 transporter (TbAT1); single experiments, Cheng–Prusoff from IC50",0.52 µM and 0.74 µM and 0.24 µM
same,P2 transporter δ(ΔG^0),P2 transporter (TbAT1); in comparison to adenosine,-0.024 kcal/mol
